In US20240174637A1, “DEGRADERS OF GRK2 AND USES THEREOF” (Sonata Therapeutics, Inc., priority 2021, published 2024):
Counter-ions that a name gives are not always drawn. Like-named read-outs stand apart in the source and are kept apart here.

How the values were obtained:
PAXF1657 EV = assay: 7-day cellular proliferation assay (CellTiter-Glo), PAXF1657 EV; format: cell-based
How it was run: (§1)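 Seven-day growth in PAXF1657 lines engineered for GRK2 overexpression or knockout, measured by CellTiter-Glo; compounds tested at 30 μM-0.0002 μM final and replenished once at day 3.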

GRK2 [1] = biological target: T1, GRK2 (Homo sapiens, UniProt P25098); assay: GRK2 Inhibition Assay (TR-FRET, Example 1); format: biochemical
T1 sequence (P25098 1-689): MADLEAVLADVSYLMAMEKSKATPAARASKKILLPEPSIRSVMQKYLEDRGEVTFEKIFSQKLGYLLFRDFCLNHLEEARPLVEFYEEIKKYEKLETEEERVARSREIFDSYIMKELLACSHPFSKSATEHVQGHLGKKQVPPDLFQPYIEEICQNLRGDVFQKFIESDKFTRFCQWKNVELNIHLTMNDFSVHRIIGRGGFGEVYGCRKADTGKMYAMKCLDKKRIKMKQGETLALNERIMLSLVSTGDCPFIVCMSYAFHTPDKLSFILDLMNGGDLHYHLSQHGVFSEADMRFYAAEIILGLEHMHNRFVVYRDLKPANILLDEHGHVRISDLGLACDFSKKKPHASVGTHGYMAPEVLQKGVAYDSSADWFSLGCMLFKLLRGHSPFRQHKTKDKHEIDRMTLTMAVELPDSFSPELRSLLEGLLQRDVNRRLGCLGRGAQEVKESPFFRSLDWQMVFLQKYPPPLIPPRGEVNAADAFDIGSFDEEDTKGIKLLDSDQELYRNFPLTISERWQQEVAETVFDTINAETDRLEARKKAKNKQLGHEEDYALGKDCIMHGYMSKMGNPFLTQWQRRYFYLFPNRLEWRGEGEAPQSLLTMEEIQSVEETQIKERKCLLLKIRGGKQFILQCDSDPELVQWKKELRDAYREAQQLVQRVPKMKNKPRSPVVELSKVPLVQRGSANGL
Method: Assay: GRK2 enzyme (1 nM final concentration) was diluted in 25 mM HEPES, 10 mM MgCl2, 2 mM DTT, 0.01% Tween-20, and 1 mM EGTA. Then the GRK2 mixture was added into ProxiPlate-384 white plate and pre-incubated for 30 min with test compounds at room temperature. ATP (7 μM final concentration) and Ulight TopoIIα (50 nM final concentration) were added into the assay plate to initiate the reaction and the mixture was incubated at room temperature for 90 min. Then, Eu anti-TopoIIα (0.12 nM final concentration), BSA (0.01% final concentration), and EDTA (11 mM final concentration) in LANCE assay buffer were added into each well. After 60 min incubation time at room temperature, TR-FRET signal was measured by EnVision plate reader.

PAXF1657 KO Clone #4 = assay: 7-day cellular proliferation assay (CellTiter-Glo), PAXF1657 KO Clone #4; format: cell-based
How it was run: as §1

GRK2 [2] = biological target: T1, GRK2; assay: GRK2 Degradation Assay and Western Blot in PAXF1657 cells; format: cell-based; set-up: endogenous in cells; host or cells: PAXF1657
How it was run: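 PAXF1657 cells grown to 70% confluency, then treated with compounds at 0–10 μM for 6 to 24 h at 37 °C. Lysates in PBS with 1% NP40 run on SDS-PAGE. GRK2 protein detected by western blot with β-actin as loading reference, using ECL chemiluminescence.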

[3] = proliferation, read-out: GeoMean IC50 (UM) PAXF1657 EV
[4] = Table 4, Example 1 assay, read-out: Enzymatic GRK2 IC50: Av IC50 GRK2
[5] = proliferation, read-out: GeoMean IC50 (uM) PAXF1657 KO Clone #4
[6] = Conc 0.3 uM, read-out: Degradation Assay - 3 point: Degradation (%)
[7] = Conc 1 uM, read-out: Degradation Assay - 3 point: Degradation (%)
[8] = Conc 3 uM, read-out: Degradation Assay - 3 point: Degradation (%)

Compound | IC50 (PAXF1657 EV; [3]) [µM] | IC50 (GRK2 [1]; [4]) [nM] | IC50 (PAXF1657 KO Clone #4; [5]) [µM] | inhibition at 0.3 µM (GRK2 [2]; [6]) [%] | inhibition at 1 µM (GRK2 [2]; [7]) [%] | inhibition at 3 µM (GRK2 [2]; [8]) [%] | DC50 (GRK2 [2]; PAXF1657, 24 h, read-out: Degradation Assay - Full Dose Response: IC50 (uM) [cell line: PAXF1657, time point: 24 h]) [µM] | IC50 (PAXF1657 EV; 168 h, 7-day, read-out: 7-day proliferation assay: IC50 GeoMean (uM) [Cell Line: PAXF1657 EV]) [µM] | IC50 (GRK2 [1]; TR-FRET, 7 μM ATP, read-out: Enzymatic GRK2 Assay: IC50 (nM) (Example 1)) | IC50 (PAXF1657 KO Clone #4; 168 h, 7-day, read-out: 7-day proliferation assay: IC50 GeoMean (uM) [Cell Line: PAXF1657 KO Clone #4]) [µM] | % GRK2 degradation at 0.03 uM in PAXF1657 EV (24 hrs) (GRK2 [2]; 0.03 uM, PAXF1657 EV, 24 hrs) [%] | % GRK2 degradation at 0.1 uM in PAXF1657 EV (24 hrs) (GRK2 [2]; 0.1 uM, PAXF1657 EV, 24 hrs) [%] | inhibition at 0.3 µM (GRK2 [2]; 0.3 uM, PAXF1657 EV, 24 hrs, read-out: % GRK2 degradation at 0.3 uM in PAXF1657 EV (24 hrs)) [%] | inhibition at 1 µM (GRK2 [2]; 1 uM, PAXF1657 EV, 24 hrs, read-out: % GRK2 degradation at 1 uM in PAXF1657 EV (24 hrs)) [%] | inhibition at 3 µM (GRK2 [2]; 3 uM, PAXF1657 EV, 24 hrs, read-out: % GRK2 degradation at 3 uM in PAXF1657 EV (24 hrs)) [%] | % GRK2 degradation at 10 uM in PAXF1657 EV (24 hrs) (GRK2 [2]; 10 uM, PAXF1657 EV, 24 hrs) [%]
C[C@@H](NC(=O)c1cccc(NCc2nnc(-c3ccncn3)n2C)c1)c1cccc(OCCN2CCN(c3ccc4c(c3)CN(C3CCC(=O)NC3=O)C4=O)CC2)c1 (stereo partly drawn) [Compound D128, N-((1R)-1-(3-(2-(4-(2-(2,6-dioxopiperidin-3-yl)-1-oxoisoindolin-5-yl)piperazin-1-yl)ethoxy)phenyl)ethyl)-3-((4-methyl-5-(pyrimidin-4-yl)-4H-1,2,4-triazol-3-yl)methylamino)benzamide] | 0.8 | 16.3 | > 30 | -23.2 | 8.53 | -38.6 |  |  |  |  |  |  |  |  |  | 
C[C@@H](NC(=O)c1cccc(NCc2nnc(-c3ccncn3)n2C)c1)c1cccc(OCCCCCCOCCOCCOCCCC(=O)Nc2cccc3c2CN(C2CCC(=O)NC2=O)C3=O)c1 (stereo partly drawn) [Compound D163, N-((1R)-1-(3-(6-(2-(2-(4-(2-(2,6-dioxopiperidin-3-yl)-1-oxoisoindolin-4-ylamino)-4-oxobutoxy)ethoxy)ethoxy)hexyloxy)phenyl)ethyl)-3-((4-methyl-5-(pyrimidin-4-yl)-4H-1,2,4-triazol-3-yl)methylamino)benzamide] | 0.37 | 16.6 | > 30 | 74.4 | 81.5 | 89.6 |  |  |  |  |  |  |  |  |  | 
C[C@@H](NC(=O)c1cccc(NCc2nnc(-c3ccncn3)n2C)c1)c1cccc(OCCCCCOCCCOCC(=O)Nc2cccc3c2CN(C2CCC(=O)NC2=O)C3=O)c1 (stereo partly drawn) [Compound D183, N-((1R)-1-(3-((5-(3-(2-((2-(2,6-dioxopiperidin-3-yl)-1-oxoisoindolin-4-yl)amino)-2-oxoethoxy)propoxy)pentyl)oxy)phenyl)ethyl)-3-(((4-methyl-5-(pyrimidin-4-yl)-4H-1,2,4-triazol-3-yl)methyl)amino)benzamide] | 0.11 | 16.7 | > 30 | 82 | 86.5 | 94.6 |  |  |  |  |  |  |  |  |  | 
C[C@@H](NC(=O)c1cccc(NCc2nnc(-c3ccncn3)n2C)c1)c1ccc(OCCCCCCOCCOCCOCCCCCC(=O)Nc2cccc3c2CN(C2CCC(=O)NC2=O)C3=O)cc1 (stereo partly drawn) [Compound D147, N-((1R)-1-(4-(6-(2-(2-(6-(2-(2,6-dioxopiperidin-3-yl)-1-oxoisoindolin-4-ylamino)-6-oxohexyloxy)ethoxy)ethoxy)hexyloxy)phenyl)ethyl)-3-((4-methyl-5-(pyrimidin-4-yl)-4H-1,2,4-triazol-3-yl)methylamino)benzamide] | 0.11 | 10.1 | > 30 | 73.8 | 81.6 | 83.1 |  |  |  |  |  |  |  |  |  | 
C[C@H](NC(=O)c1cccc(NCc2nnc(-c3ccncn3)n2C)c1)c1cccc(OCCCCCCOCCOCCOCCCC(=O)Nc2cccc3c2CN(C2CCC(=O)NC2=O)C3=O)c1 (stereo partly drawn) [Compound D154, N-((1S)-1-(3-(6-(2-(2-(4-(2-(2,6-dioxopiperidin-3-yl)-1-oxoisoindolin-4-ylamino)-4-oxobutoxy)ethoxy)ethoxy)hexyloxy)phenyl)ethyl)-3-((4-methyl-5-(pyrimidin-4-yl)-4H-1,2,4-triazol-3-yl)methylamino)benzamide] | 4.39 | 183 | > 30 | 25.1 | 19.5 | 9.15 |  |  |  |  |  |  |  |  |  | 
C[C@@H](NC(=O)c1cccc(NCc2nnc(-c3ccncn3)n2C)c1)c1cccc(OCCCCCCOCCOCCNc2ccc3c(c2)CN(C2CCC(=O)NC2=O)C3=O)c1 (stereo partly drawn) [Compound D141, N-((1R)-1-(3-(6-(2-(2-(2-(2,6-dioxopiperidin-3-yl)-1-oxoisoindolin-5-ylamino)ethoxy)ethoxy)hexyloxy)phenyl)ethyl)-3-((4-methyl-5-(pyrimidin-4-yl)-4H-1,2,4-triazol-3-yl)methylamino)benzamide] | 0.17 | 19.5 | 1.66 | 89 | 88 | 67 | 8.71 |  |  |  |  |  |  |  |  | 
Cc1ncsc1-c1ccc(CNC(=O)[C@@H]2C[C@@H](O)CN2C(=O)[C@@H](NC(=O)CCCCCOCCOCCOCCCCCCOc2cccc(C(C)NC(=O)c3cccc(NCc4nnc(-c5ccncn5)n4C)c3)c2)C(C)(C)C)cc1 (stereo partly drawn) [Compound D91, (2S,4R)-1-((2S)-2-(tert-butyl)-22-(3-(1-(3-(((4-methyl-5-(pyrimidin-4-yl)-4H-1,2,4-triazol-3-yl)methyl)amino)benzamido)ethyl)phenoxy)-4-oxo-10,13,16-trioxa-3-azadocosan-1-oyl)-4-hydroxy-N-(4-(4-methylthiazol-5-yl)benzyl)pyrrolidine-2-carboxamide] |  |  |  |  |  |  |  | < 1 | < 100 | 1 to 10 | 37 | 28 | 42 | 51 | 16 | −4
C[C@@H](NC(=O)c1cccc(NCc2nnc(-c3ccncn3)n2C)c1)c1cccc(OCCCCCCOCC(=O)N2CCN(c3cc4c(cc3F)C(=O)N(C3CCC(=O)NC3=O)C4=O)CC2)c1 (stereo partly drawn) [Compound D133, N-((1R)-1-(3-(6-(2-(4-(2-(2,6-dioxopiperidin-3-yl)-6-fluoro-1,3-dioxoisoindolin-5-yl)piperazin-1-yl)-2-oxoethoxy)hexyloxy)phenyl)ethyl)-3-((4-methyl-5-(pyrimidin-4-yl)-4H-1,2,4-triazol-3-yl)methylamino)benzamide] | 0.71 | 9.05 | > 30 | 57.7 | 82.4 | 86.7 |  |  |  |  |  |  |  |  |  | 
Cc1ncsc1-c1ccc(CNC(=O)[C@@H]2C[C@@H](O)CN2C(=O)[C@@H](NC(=O)COCCCOCCCCCOc2ccc([C@H](C)NC(=O)c3cccc(NCc4nnc(-c5ccncn5)n4C)c3)cc2)C(C)(C)C)cc1 [Compound D151] | 0.3 | > 1000 | 9.65 | 56 | 58 | 34 |  |  |  |  |  |  |  |  |  | 
C[C@@H](NC(=O)c1cccc(NCc2nnc(-c3ccncn3)n2C)c1)c1cccc(C(=O)N2CC(CN3CCN(c4ccc5c(c4)CN(C4CCC(=O)NC4=O)C5=O)CC3)C2)c1 (stereo partly drawn) [Compound D121, N-((1R)-1-(3-(3-((4-(2-(2,6-dioxopiperidin-3-yl)-1-oxoisoindolin-5-yl)piperazin-1-yl)methyl)azetidine-1-carbonyl)phenyl)ethyl)-3-((4-methyl-5-(pyrimidin-4-yl)-4H-1,2,4-triazol-3-yl)methylamino)benzamide hydrochloride] | 11.4 | 44.7 | > 30 | 7.97 | 24 | 53.8 |  |  |  |  |  |  |  |  |  | 
